Assay [1] has as its target recombinant human mPGES-1 (Homo sapiens (Human), UniProt O14684). In words: mPGES-1 enzyme assay (HTRF detection of PGE2). In kind it is biochemical. Summed up: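 Microsomes from E. coli expressing recombinant human mPGES-1 (~0.5 μg protein/well) in 0.1 M phosphate pH 7.4 with 2.5 mM GSH, pre-incubated with compound 25 min at room temperature. PGH2 (2 μM final) added, reaction stopped with FeCl2 after 60 s; PGE2 quantified by HTRF (665/620 ratio) against a calibration curve, IC50 by nonlinear regression after background subtraction.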
(In general: TR-FRET usually uses a lanthanide donor and a delayed reading to cut background.)

The target in assay [2] is mPGES-1 in A549 cells (Homo sapiens (Human), UniProt O14684). In words: A549 cell-based assay (PGE2 formation, 50% human serum). Summed up:
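PGE2 release, read by HTRF and set to 100% for vehicle, gave IC50s from 6-8 point titrations. Human A549 cells were exposed to compound for 20-24 h in medium with 50% human serum, with IL-1β (5 ng/ml) and arachidonic acid (10 nM) as stimulus.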

[3] abbreviates: recombinant human mPGES-1 microsomes, PGH2 2 μM, 60 seconds, read-out: mPGES-1 inhibitory effect IC50 in the enzyme assay.
Setting [4] is: IL-1β 5 ng/ml, 10 nM arachidonic acid, 20-24 h, read-out: mPGES-1 inhibitory effect IC50 in the cell assay.

SMILES strings stand for the structures. Like-named read-outs stand apart in the source and are kept apart here. Where only a bound is given, the exact number is not on record here.

mPGES-1 in A549 cells, sequence (O14684 whole entry): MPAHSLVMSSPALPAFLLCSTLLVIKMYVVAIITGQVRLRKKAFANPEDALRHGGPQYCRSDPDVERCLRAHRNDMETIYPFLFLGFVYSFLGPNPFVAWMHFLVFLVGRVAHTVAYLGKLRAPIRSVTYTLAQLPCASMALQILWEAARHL
recombinant human mPGES-1, sequence (O14684 whole entry): as above

For the compound `Cn1c(Nc2c(Cl)ccc(CNC(=O)C(C)(C)C)c2Cl)nc2cc(C(=O)N[C@H]3CC[C@H](C(F)(F)F)CC3)c(N3CCC(O)(C(F)(F)F)CC3)cc21` [Example 82], the IC50 in assay [1] (setting [3]) was determined as 3 nM; in assay [2] (setting [4]), 1 nM.

`Cn1c(Nc2c(Cl)ccc(CNC(=O)C(C)(C)C)c2Cl)nc2cc(C(=O)NCC(F)(F)C(F)(F)F)c(N3CCOCC3)cc21` [Example 68]: the 50% inhibitory concentration (IC50) in assay [1] (setting [3]) came out at 4 nM; in assay [2] (setting [4]), 1 nM.

Regarding `COC1CN(c2cc3c(cc2C(=O)N[C@H]2CC[C@H](C(F)(F)F)CC2)nc(Nc2c(Cl)ccc(CNC(=O)C(C)(C)C)c2Cl)n3C)C1` [Example 98], the concentration for half-maximal inhibition (IC50) in assay [1] (setting [3]) and in assay [2] (setting [4]) was 5 nM each time.

On to `Cn1c(Nc2c(Cl)ccc(CNC(=O)C(C)(C)C)c2Cl)nc2cc(C(=O)Nc3nc(C(F)(F)F)cs3)c(N3CCC(C(F)(F)F)CC3)cc21` [Example 161], for which the IC50 in assay [1] (setting [3]) and in assay [2] (setting [4]) was 3 nM each time.

Turning to `Cn1c(Nc2c(Cl)ccc(CNC(=O)[C@](C)(O)C(F)(F)F)c2Cl)nc2cc(C(=O)Nc3ccc(F)c(Cl)c3)c(N3CC[C@@H](F)C3)cc21` [Example 248], the IC50 was found to be 6.7 nM in assay [1] (setting [3]) and 6 nM in assay [2] (setting [4]).

`CC(NC(=O)c1cc2nc(Nc3c(Cl)ccc(CNC(=O)C(C)(C)C)c3Cl)n(C)c2cc1N1CCC(F)(F)C1)C(F)(F)F` (stereo not drawn) [Example 39]: the IC50 in assay [1] (setting [3]) was 1 nM; in assay [2] (setting [4]), 2 nM.

`Cn1c(Nc2cc(CNC(=O)C(C)(C)C)ccc2Cl)nc2cc(C(=O)Nc3ccc(Br)cc3)c(OCC(F)F)cc21` [[drawing 48] of WO 2010/100249, reference compound]: the IC50 in assay [1] (Table C comparison of selected benzimidazoles, read-out: Enzym IC50) was determined as 3 nM; in assay [2] (Table C comparison of selected benzimidazoles, read-out: Cell IC50), 10 nM.

As to `CC(O)CN(C)c1cc2c(cc1C(=O)N[C@H]1CC[C@H](C(F)(F)F)CC1)nc(Nc1c(Cl)ccc(CNC(=O)C(C)(C)C)c1Cl)n2C` (stereo partly drawn) [Example 106], the IC50 in assay [1] (setting [3]) is 2 nM; in assay [2] (setting [4]) it was less than 1 nM.

`CC(C)(F)C(=O)NCc1ccc(Cl)c(Nc2nc3cc(C(=O)N[C@H]4CC[C@H](C(F)(F)F)CC4)c(N4CCC(O)(C(F)(F)F)CC4)cc3n2CC(F)F)c1Cl` [Example 80]: the IC50 worked out at 2 nM in assay [1] (setting [3]) and 1 nM in assay [2] (setting [4]).

For `Cn1c(Nc2c(Cl)ccc(CNC(=O)C(C)(C)C(F)(F)F)c2Cl)nc2cc(C(=O)NCCC(F)(F)F)c(N3CCC(C(F)(F)F)CC3)cc21` [Example 261], the half-inhibitory concentration (IC50) in assay [1] (setting [3]) turned out to be 2.9 nM; in assay [2] (setting [4]), 1.6 nM.

For `Cn1c(Nc2c(Cl)ccc(CNC(=O)[C@@](C)(O)C(F)(F)F)c2Cl)nc2cc(C(=O)N[C@H]3CC[C@H](C(F)(F)F)CC3)c(N3CCC(C(F)(F)F)CC3)cc21` [Example 251], the IC50 in assay [1] (setting [3]) is 3.9 nM; in assay [2] (setting [4]) it was 1 nM.

As for `Cn1c(Nc2c(Cl)ccc(CNC(=O)C(C)(C)C)c2Cl)nc2cc(C(=O)NCC(F)(F)F)c(N3CCC(C(C)(C)O)CC3)cc21` [Example 29, N-(2,2,2-Trifluoroethyl)-2-{2,6-dichloro-3-[(2,2-dimethyl-propionylamino)-methyl]-phenylamino}-6-[4-(1-hydroxy-1-methyl-ethyl)-piperidinyl]-1-methyl-1H-benzimidazole-5-carboxylic acid amide], the IC50 in assay [1] (setting [3]) came to 2 nM; in assay [2] (setting [4]) it was 3 nM.

As to `Cn1ccnc1CNc1cc2c(cc1C(=O)N[C@H]1CC[C@H](C(F)(F)F)CC1)nc(Nc1c(Cl)ccc(CNC(=O)C(C)(C)C)c1Cl)n2C` [Example 113], the IC50 came out at 8 nM in assay [1] (setting [3]) and 62 nM in assay [2] (setting [4]).

On to `Cn1c(Nc2c(Cl)ccc(CNC(=O)[C@](C)(O)C(F)(F)F)c2Cl)nc2cc(C(=O)N[C@H]3CC[C@@H](C(F)(F)F)CC3)c(N3CCC(C(F)(F)F)CC3)cc21` [Example 255], for which the IC50 in assay [1] (setting [3]) was 4.3 nM; in assay [2] (setting [4]) it was 4 nM.

`Cn1c(Nc2c(Cl)ccc(CNC(=O)[C@](C)(O)C(F)(F)F)c2Cl)nc2cc(C(=O)Nc3cccc(C(F)(F)F)n3)c(N3CCC(C(F)(F)F)CC3)cc21` [Example 244]: the IC50 was determined as 4.2 nM in assay [1] (setting [3]) and 27 nM in assay [2] (setting [4]).

With `Cn1c(Nc2c(Cl)ccc(CNC(=O)C(C)(C)C)c2F)nc2cc(C(=O)Nc3ccc(F)c(Cl)c3)c(N3CCC(F)(F)C3)cc21` [Example 51], the IC50 in assay [1] (setting [3]) was 3 nM; in assay [2] (setting [4]), less than 1 nM.

As to `Cn1c(Nc2c(Cl)ccc(CNC(=O)C(C)(C)C(F)(F)F)c2Cl)nc2cc(C(=O)Nc3ccc(F)c(Cl)c3)c(N3CC[C@@H](F)C3)cc21` [Example 236], the IC50 in assay [1] (setting [3]) worked out at 3.3 nM; in assay [2] (setting [4]), 2 nM.

Turning to `Cn1c(Nc2c(Cl)ccc(CNC(=O)C(C)(C)C)c2Cl)nc2cc(C(=O)Nc3cccc(C(F)(F)F)n3)c(N3CCC(F)(F)C3)cc21` [Example 47], the IC50 amounted to 2 nM in assay [1] (setting [3]) and 1 nM in assay [2] (setting [4]).

In the case of `Cn1c(Nc2c(Cl)ccc(CNC(=O)[C@@](C)(O)C(F)(F)F)c2Cl)nc2cc(C(=O)NC3CC(F)(F)C3)c(N3CCC(C(F)(F)F)CC3)cc21` [Example 258], the IC50 in assay [1] (setting [3]) turned out to be 2.2 nM; in assay [2] (setting [4]), 4 nM.

For the compound `Cn1c(Nc2c(Cl)ccc(CNC(=O)C(C)(C)C)c2Cl)nc2cc(C(=O)NC3CC(F)(F)C3)c(N3CCC(C(F)(F)F)CC3)cc21` [Example 14], the IC50 in assay [1] (setting [3]) is 1 nM; in assay [2] (setting [4]), less than 1 nM.

For `Cn1c(Nc2c(Cl)ccc(CNC(=O)C(C)(C)C)c2Cl)nc2cc(C(=O)N[C@H]3CC[C@H](C(F)(F)F)CC3)c(NC3CC(F)(F)C3)cc21` [Example 4, N-(trans-4-Trifluoromethyl-cyclohexyl)-2-{2,6-dichloro-3-[(2,2-dimethyl-propionylamino)-methyl]-phenylamino}-6-[3,3-difluoro-cyclobutylamino]-1-methyl-1H-benzimidazole-5-carboxylic acid amide], the IC50 in assay [1] (setting [3]) was determined as 5 nM; in assay [2] (setting [4]), 20 nM.

`Cn1c(Nc2c(Cl)ccc(CNC(=O)C(C)(C)F)c2Cl)nc2cc(C(=O)Nc3ccc(OC(F)(F)F)cc3)c(N3CCC(F)(F)CC3)cc21` [Example 140]: the IC50 in assay [1] (setting [3]) was found to be 2 nM; in assay [2] (setting [4]) it was 5 nM.

Consider `Cn1c(Nc2c(Cl)ccc(CNC(=O)C(C)(C)F)c2Cl)nc2cc(C(=O)N[C@H]3CC[C@H](C(F)(F)F)CC3)c(N3CCC(C(F)(F)F)CC3)cc21` [Example 249], for which the IC50 in assay [1] (setting [3]) is 4.2 nM; in assay [2] (setting [4]) it was 6 nM.

On to `Cn1c(Nc2c(Cl)ccc(CNC(=O)C(C)(C)C)c2Cl)nc2cc(C(=O)N[C@H]3CC[C@H](C(F)(F)F)CC3)c(N3CCC(C)(O)C3)cc21` (stereo partly drawn) [Example 83], for which the results for the IC50 in assay [1] (setting [3]) and in assay [2] (setting [4]) were 2 nM and 1.4 nM, respectively.

Consider `CN(CC1(C)CC1)c1cc2c(cc1C(=O)N[C@H]1CC[C@H](C(F)(F)F)CC1)nc(Nc1c(Cl)ccc(CNC(=O)C(C)(C)C)c1Cl)n2C` [Example 107], for which the IC50 was 1 nM in assay [1] (setting [3]) and less than 1 nM in assay [2] (setting [4]).

As for `Cn1c(Nc2c(Cl)ccc(CNC(=O)c3c(N)cccc3Cl)c2Cl)nc2cc(C(=O)NCCC(F)(F)F)c(N3CCC(C(F)(F)F)CC3)cc21` [Example 176], the IC50 was 4 nM in assay [1] (setting [3]) and 34 nM in assay [2] (setting [4]).

In the case of `Cn1c(Nc2c(Cl)ccc(CNC(=O)C(C)(C)F)c2Cl)nc2cc(C(=O)Nc3ccc(F)c(Cl)c3)c(N3CC[C@@H](F)C3)cc21` [Example 235], the IC50 in assay [1] (setting [3]) was 3.9 nM; in assay [2] (setting [4]) it was 4.4 nM.

On to `Cn1c(Nc2c(Cl)ccc(CNC(=O)C(C)(C)C)c2Cl)nc2cc(C(=O)Nc3nnc(C(C)(C)C)s3)c(N3CCC(C(F)(F)F)CC3)cc21` [Example 162], for which the half-inhibitory concentration (IC50) was determined as 3 nM in assay [1] (setting [3]) and 2 nM in assay [2] (setting [4]).

Consider `Cn1c(Nc2c(Cl)ccc(CNC(=O)C(C)(C)C)c2Cl)nc2cc(C(=O)NCc3ccc(F)cc3C(F)(F)F)c(N3CCC(F)(F)C3)cc21` [Example 44], for which the results for the IC50 in assay [1] (setting [3]) and in assay [2] (setting [4]) were 4 nM and 6 nM, respectively.

As for `Cn1c(Nc2c(Cl)ccc(CNC(=O)C(C)(C)F)c2Cl)nc2cc(C(=O)Nc3ccc(F)c(Cl)c3)c(N3CCC(F)(F)C3)cc21` [Example 154], the values for the IC50 in assay [1] (setting [3]) and in assay [2] (setting [4]) were 2 nM and less than 1 nM, respectively.

As for `Cn1c(Nc2c(Cl)ccc(CNC(=O)C(C)(C)C)c2Cl)nc2cc(C(=O)NCC(F)(F)F)c(N3CCC(F)(F)C3)cc21` [Example 26, N-(2,2,2-Trifluoroethyl)-2-{2,6-dichloro-3-[(2,2-dimethyl-propionylamino)-methyl]-phenylamino}-6-[3,3-difluoro-pyrrolidinyl]-1-methyl-1H-benzimidazole-5-carboxylic acid amide], the IC50 is 3 nM in assay [1] (setting [3]) and 3.6 nM in assay [2] (setting [4]).

With `CC(C)(C)C(=O)NCc1ccc(Cl)c(Nc2nc3cc(C(=O)N[C@H]4CC[C@H](C(F)(F)F)CC4)c(N4CC[C@@H](F)C4)cc3n2CC(F)F)c1Cl` [Example 79], the figures for the 50% inhibitory concentration (IC50) in assay [1] (setting [3]) and in assay [2] (setting [4]) were 3 nM and 1 nM, respectively.

For `Cn1c(Nc2c(Cl)ccc(CNC(=O)C(C)(C)C)c2Cl)nc2cc(C(=O)Nc3ccc(OC(F)(F)F)cc3)c(N3CCOCC3)cc21` [Example 141], the values for the concentration for half-maximal inhibition (IC50) in assay [1] (setting [3]) and in assay [2] (setting [4]) were 2 nM and 1 nM, respectively.

Take `Cn1c(Nc2c(Cl)ccc(CNC(=O)C(C)(C)C)c2Cl)nc2cc(C(=O)N[C@H]3CC[C@H](C(F)(F)F)CC3)c(N3CC4CC4C3)cc21` (stereo partly drawn) [Example 22]: the IC50 amounted to 5 nM in assay [1] (setting [3]) and 1.5 nM in assay [2] (setting [4]).

As for `Cn1c(Nc2c(Cl)ccc(CNC(=O)C(C)(C)C)c2Cl)nc2cc(C(=O)NCc3ncccc3C(F)(F)F)c(N3CCC(F)(F)C3)cc21` [Example 43], the IC50 in assay [1] (setting [3]) was found to be 3 nM; in assay [2] (setting [4]), 5 nM.

`Cn1c(Nc2c(Cl)ccc(CNC(=O)C(C)(C)C)c2Cl)nc2cc(C(=O)N[C@H]3CC[C@H](C(F)(F)F)CC3)c(N3C[C@H]4C[C@@H](C3)[C@H]4O)cc21` [Example 126]: the IC50 in assay [1] (setting [3]) was determined as 2 nM; in assay [2] (setting [4]) it was 1 nM.

By IC50 is commonly meant the concentration that inhibits the measured activity by half.
